Assay results taken from US20050075271A1, “Crystalline beta2 adrenergic receptor agonist” (priority 2002, published 2005).

Tests used:
Assay type in all cases: physicochemical
[1] = Second stability test of aqueous nebulizer formulation, HPLC, 4-9 months storage; settings: nine months at 5° C.
[2] = Stability testing of aqueous nebulizer formulation (Formulation Example 1), HPLC, 1-4 months storage; settings: for Percent of active compound remaining: aqueous formulation 0.1 mg/g, pH 5.00
Description: (§1) An aqueous aerosol formulation for nebulizer administration having 0.1 mg of the active compound, compound 1, per gram of solution was prepared by the following procedure. Citric acid (755.8 mg) was added to a vessel charged with 0.9% sodium chloride solution (325.7 g). The active ingredient (42.3 mg) was added to the sodium chloride solution and the resulting mixture was stirred for 5 min and sonicated for 7 min to dissolve the active ingredient. The intial pH of the solution was determined to be 2.54. 1 N NaOH (7.1 g) was slowly added to the solution to obtain a final pH of 5.00. An additional amount of 0.9% sodium chloride solution (26.7 g) was added and the resulting solution was stirred to provide the aqueous formulation (360.3 g).
Aliquots of the formulation prepared as in Example 1 were stored at −20° C., 5° C., room temperature, and 40° C. Samples were removed for analysis by HPLC at 1 month intervals. HPLC analysis was conducted using a Zorbax RP-bonus, C14, 25 cm×4.6 mm column, equilibrated at 35° C. The mobile phases used were: A: 0.1% TFA in 98:2 water:acetonitrile; and B: 0.1% TFA in 10:90 water:acetonitrile. Detection was by UV absorbance at 215 nm. A flow rate of 1.0 mL/min and a gradient of 0 to 60% B over 20 minutes was utilized. The percent of active compound 1 remaining after the indicated period, normalized to the sample stored at −20° C. is given in Table 1 below.

[3] = Second stability test of aqueous nebulizer formulation, HPLC, 4-9 months storage; settings: normalized to −20° C. sample
Description: as §1
In a second stability test, aliquots were prepared and stored as above. Samples were removed for analysis by HPLC at various intervals. HPLC analysis was conducted using a MAC MOD Ace-5, C18, 25 cm×4.6 mm, 5 μm column, equilibrated at 30° C. The mobile phases were as described above. Detection was by UV absorbance at 244 nm. The initial condition was 6% phase B. A flow rate of 1.0 mL/min and a gradient of 6 to 30% B over 25 min, 30% to 60% B in 10 min and 60% to 100% B in 2 min were utilized. The retention time of compound 1 was approximately 20 min. The percent of active compound 1 remaining after the indicated period, normalized to the sample stored at −20° C. is given in Table 2 below.

[4] = Solid state stability of recrystallized diHCl salt, 6 months at 40° C. and 75% relative humidity
Description: In another test, samples of the recrystallized diHCl salt of Example 7a were stored at 40° C. and 75% relative humidity.
(§2) Thermogravimetric analysis was conducted using a TA instruments model Q50. Samples were weighed in aluminum pans and heated from 50° C. to 300° C. at a rate of 10° C./min. Water content was estimated by measuring the total weight loss between 50° and 120° C. (a range in which no significant decomposition was observed).
(§3) Unless otherwise indicated, HPLC analysis was conducted using a Zorbax RP-bonus, C14, 25 cm×4.6 mm column, equilibrated at 35° C. The mobile phases used were: A: 0.1% TFA in 98:2 water:acetonitrile; and B: 0.1% TFA in 10:90 water:acetonitrile. Detection was by UV absorbance at 215 nm. A flow rate of 1.0 mL/min and a gradient of 0 to 60% B over 20 minutes was utilized. The diHCl salt of compound 1 gave a retention time of 11.7 min.
Chiral purity was determined using a Beckman P/ACE MDQ capillary electrophoresis system. The analysis was performed at pH 2.5 using heptakis-(2,3,-diacetyl-6-sulfato)-β-cyclodextrin (HDAS-β-CD) as the chiral selector and using a 50 μm×31.2 cm fused silica capillary. Detection was by UV absorbance at 200 nm. The four stereoisomers migrate in the following order: SS, RS, SR, RR, where compound 1 is designated as RR.

[5] = Solid state stability testing of crystalline diHCl salt, ground and unground, 30 days (DSC, TGA, XRPD, HPLC); settings: for crystal stability by DSC after exposure to elevated temperature and humidity: 40° C. and 75% relative humidity vs room temperature desiccator, ground and unground samples, dihydrochloride
Description: A single lot of the crystalline diHCl salt of compound 1]prepared as in Example 6, was used to prepare four samples of approximately 30 mg each. Two samples were ground to fine particles with a mortar and pestle. Two samples, one ground and one that had not been processed, were stored in a closed chamber at 40° C. and 75% relative humidity for 30 days and two samples, one ground and one that had not been processed, were stored at room temperature in a desiccators for the same period. Samples were withdrawn for analysis by DSC and TGA at 11 days and by XRPD and HPLC at 30 days.
X-ray powder diffraction patterns were obtained with a Shimadzu 6000 diffractometer using Cu Kα (40.0 kV, 35.0 mA) radiation. The analysis was performed with the goniometer running in continuous-scan mode of 2°/min with a step size of 0.02° over a range of 4 to 45°. Samples were prepared on glass specimen holders as a thin layer of powdered material.
Differential scanning calorimetry traces were obtained with a TA instruments model DSC2010. Samples were placed in sealed aluminum pans for analysis with an empty pan serving as the reference. Samples were equilibrated at 30° C. and heated at 5° C. per minute to a temperature of 300° C. The instrument was calibrated with an indium standard.
as §2, §3

[6] = 6 months at 40° C. and 75% relative humidity
[7] = 40° C. and 75% relative humidity, 30 days, ground and unground

In the case of `O=CNc1cc([C@@H](O)CNCCc2ccc(NC[C@H](O)c3ccccc3)cc2)ccc1O` [compound 1, N-{2-[4-((R)-2-hydroxy-2-phenylethylamino)phenyl]ethyl}-(R)-2-hydroxy-2-(3-formamido-4-hydroxyphenyl)ethylamine], the “free base composition of nebulizer solution upon storage” value [1] is reported as “essentially unchanged”, the “Percent of active compound remaining” value ([2]; 5° C., 1 month, normalized to sample stored at −20° C.) is reported as 101% and the “Percent of active compound remaining” value ([2]; 5° C., 2 months, normalized to −20° C. sample) is reported as 100%. The “Percent of active compound remaining” value ([2]; 5° C., 3 months, normalized to −20° C. sample) was 100%, the “Percent of active compound remaining” value ([2]; 5° C., 4 months, normalized to −20° C. sample) was 99% and the “Percent of active compound remaining” value ([2]; 40° C., 1 month, normalized to −20° C. sample) was 94%. The “Percent of active compound remaining” value ([2]; 40° C., 2 months, normalized to −20° C. sample) was 87%, the “Percent of active compound remaining” value ([2]; 40° C., 3 months, normalized to −20° C. sample) was 72% and the “Percent of active compound remaining” value ([2]; 40° C., 4 months, normalized to −20° C. sample) was 74%. The “chemical degradation of nebulizer solution upon storage (HPLC)” value ([2]; nebulizer solution 0.1 mg compound 1 per gram, four months at room temperature) was “no unacceptable chemical degradation”, the “Percent of active compound remaining” value ([2]; room temperature, 1 month, normalized to −20° C. sample) was 99% and the “Percent of active compound remaining” value ([2]; room temperature, 2 months, normalized to −20° C. sample) was 99%. For the same molecule, the “Percent of active compound remaining” value ([2]; room temperature, 3 months, normalized to −20° C. sample) was 97%, the “Percent of active compound remaining” value ([2]; room temperature, 4 months, normalized to −20° C. sample) was 96% and the “Percent of active compound remaining” value ([3]; 5° C., 4 months) was 99%. For the same molecule, the “Percent of active compound remaining” value ([3]; 5° C., 5 months) was 99%, the “Percent of active compound remaining” value ([3]; 5° C., 6 months) was 100% and the “Percent of active compound remaining” value ([3]; 5° C., 9 months) was 99%. For the same molecule, the “Percent of active compound remaining” value ([3]; 40° C., 4 months) was 74%, the “Percent of active compound remaining” value ([3]; 40° C., 5 months) was 69% and the “Percent of active compound remaining” value ([3]; 40° C., 6 months) was 63%. For the same molecule, the “Percent of active compound remaining” value ([3]; room temperature, 4 months) was 97%, the “Percent of active compound remaining” value ([3]; room temperature, 5 months) was 95% and the “Percent of active compound remaining” value ([3]; room temperature, 6 months) was 94%. For the same molecule, the “Percent of active compound remaining” value ([3]; room temperature, 9 months) was 90%.

With `Cl.Cl.O=CNc1cc([C@@H](O)CNCCc2ccc(NC[C@H](O)c3ccccc3)cc2)ccc1O` [crystalline diHCl salt of compound 1, N-{2-[4-((R)-2-hydroxy-2-phenylethylamino)phenyl]ethyl}-(R)-2-hydroxy-2-(3-formamido-4-hydroxyphenyl)ethylamine dihydrochloride] the water content ([4]; 6 mo at 40° C. and 75% relative humidity) was 0.37%, the “appearance of the material after storage” value [4, 6] was “no visible contamination” and the “chemical purity by HPLC analysis after storage” value [4, 6] was “essentially unchanged”. The “chiral purity after storage” value [4, 6] was “no change”, the water content ([4]; initially) was 0.12% and the “crystal stability by DSC after exposure to elevated temperature and humidity” value [5] was “no detectable effect on crystal stability”. For the same molecule, the “crystal stability by DSC after exposure to elevated temperature and humidity” value ([5]; listed as crystalline diHCl salt) was “no detectable difference”, the “XRPD pattern after exposure to heat and humidity” value [5, 7] was “not appreciably affected” and the “chemical degradation by HPLC” value [5, 7] was “no appreciable chemical degradation”. The “water associated with crystals by TGA after exposure to high relative humidity” value ([5]; 40° C. and 75% relative humidity, ground and unground crystals, 11 days) was “no appreciable quantity of water becomes associated”, the thermal stability ([5]; elevated temperatures) was “thermally stable” and the hygroscopicity ([5]; exposed to the atmosphere for prolonged periods at high relative humidity) was “neither hygroscopic nor deliquescent”. The “decomposition on grinding into micronized particles” value ([5]; ground into micronized particles) was “without significant decomposition”.
